Results on 3 molecules are retold here after patent publication US12006355B2, “Nanobodies against cystic fibrosis transmembrane conductance regulator (CFTR) inhibitory factor (Cif)” (priority 2017, dated 2024).

pEC50, pIC50, pKd: −log10 of the molar value. Values joined by “and” are separate entries in the source; they are usually repeats but may differ in a detail not shown here. Equal values may be shown once.

Assay [1] has as its target T1, Cif (Pseudomonas aeruginosa, UniProt A0A0H2ZD27).
T1 construct: made in house
Description: Competitive or displacement sandwich ELISA (dsELISA) with Nb 219. It counts as binding. Here is the method:
2). Competitive or Displacement Sandwich assay. A 96-well plate was coated with pAb at 3 μg/mL, 100 μL per well at RT for 1 h. The plate was blocked with 1% skimmed milk in PBST at RT for at least 2 h. Cif in PBS was loaded at 20 ng/mL, 100 μL/well and incubated for 1 h at RT. Following 5 times wash with PBST, a serial dilution of small molecule synthetic inhibitors in PBS containing 20% methanol at 50 μL/well was loaded, followed by 50 μL/well of VHH at 0.1 μg/mL (or 5 ng/well) in PBS and incubated for 1 h at RT. Mouse anti-HA-HRP conjugate was added at 100 μl/well in a 1:3000 dilution as instructed by manufacturer. The plate was incubated for 1h at RT and washed 5 times. The plate was developed for 10 min with substrate solution added at 100 μl/well. The reaction was stopped by addition of 2M H2SO4 (50 μl/well) and absorbance was read at 450 nm. SigmaPlot 11.0 software was used for curve fitting and data analysis.
Development of nanobody-based screening assay. […] In this assay, the plate was coated with polyclonal anti-Cif antibody (pAb) that captured Cif-protein. Inhibitory anti-Cif Nb in role of a reporter was added at constant concentration together with a serial dilution of a tested inhibitor. […] In this assay, the amount of anti-Cif pAb loaded in the plate was optimized first. […] Second, the amount of Cif-protein captured on pAb was optimized. […] Both nanobodies 113 and 219 were evaluated in the inhibitory assay.
(In general: In an ELISA, binding on a coated surface is turned into a signal by an enzyme label.)

Assay [2] has as its target T1, Cif. Description: biochemical. The following applies: Fluorescent assay IC50, Table 7, small molecule inhibitors. Here is the method:
Fluorescent-based Cif Inhibitory assay. Activity of enzyme was measured using a sensitive fluorescent-based assay similar to the method previously described for other EHs (29,30). Cyano(6-methoxynaphthalen-2-yl)methyl glycidyl carbonate (CMNGC) was used as a fluorescent reporter substrate. […] A schematic of the assay is depicted in FIG. 1.
Reported IC50 values are the average of triplicates with at least two data points above and at least two below the IC50. […] Control experiments without Cif (inhibitor/VHH and substrate) were used to evaluate the intrinsic fluorescence of inhibitors.

Assay [3] concerns the target T1, Cif. In words: Octet bio-layer interferometry. It counts as binding. Particulars: steady state analysis, 30° C. Here is the method: Octet Bio-Layer Interferometry: KD of Cif and their inhibitors was determined by Bio-Layer Interferometry using an Octet Red instrument (ForteBio). Recombinant Cif-His was prepared as described previously (20,29). Stocks of purified proteins were stored at 4° C. until used.
On the technique in general: In BLI a coated tip is dipped into the sample, and binding shifts an interference pattern.

T1 sequence (A0A0H2ZD27 25-319 limits assumed): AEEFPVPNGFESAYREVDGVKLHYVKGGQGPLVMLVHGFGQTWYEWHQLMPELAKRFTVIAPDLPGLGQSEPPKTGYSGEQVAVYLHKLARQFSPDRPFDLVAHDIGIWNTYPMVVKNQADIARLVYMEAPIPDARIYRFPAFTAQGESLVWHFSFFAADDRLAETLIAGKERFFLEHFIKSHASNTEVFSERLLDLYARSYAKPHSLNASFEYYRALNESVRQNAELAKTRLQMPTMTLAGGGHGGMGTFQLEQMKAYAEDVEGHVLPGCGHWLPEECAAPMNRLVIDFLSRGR

The term pEC50 denotes −log10 of the EC50, conventionally taken in molar units. Higher therefore signals a low EC50. The pIC50 is −log10 of the IC50, conventionally taken in molar units. High values mean a small IC50, low ones a large IC50. As to `O=C(O)CC(=O)Nc1cc(Cl)c(Oc2ccc(O)cc2)c(Cl)c1` [Compound 1, 3-((3,5-dichloro-4-(4-hydroxyphenoxy)phenyl)amino)-3-oxopropanoic acid, reference compound], at Cif [1], the pEC50 was under 3.70. Also, at Cif [2], the pIC50 was under 4.30.
The term pKd denotes −log10 of the Kd, conventionally taken in molar units. Consider `CCC(=O)Nc1cc(Cl)c(Oc2ccc(O)c(-c3ccc(C(N)=O)c(F)c3)c2)c(Cl)c1` [Compound 8, 5′-(2,6-dichloro-4-propionamidophenoxy)-3-fluoro-2′-hydroxy-[1,1′-biphenyl]-4-carboxamide], for which the pEC50 on Cif [1] is 6.70. Besides, the “fold more potent than 8c” value on Cif [1] (nanobody-based inhibitory sandwich ELISA) is reported as 1 fold. Besides, the pKd on Cif [3] is 6.80 and 6.70. In addition, on Cif [2], the pIC50 is ~6.30 and 6.33.
For `NC(=O)c1ccc(-c2cc(Oc3c(Cl)cc(N)cc3Cl)ccc2O)cc1` [Compound 7, 5′-(4-amino-2,6-dichlorophenoxy)-2′-hydroxy-[1,1′-biphenyl]-4-carboxamide], at Cif [1], the pEC50 is 6.15. The molecule also had a pKd at Cif [3] of 6.05. Besides, the pIC50 against Cif [2] was ~6.30 and 6.26.
